Source: ChEMBL document CHEMBL3137440, “DNDi T. cruzi fenarimol series dataset from which preclinical candidate EPL-BS0967 was identified (see also related datasets: CHEMBL3137386 and CHEMBL2448688)”
Values after ≈ are worked out from the molar mass of the structure shown.

How the values were obtained:
Trypanosoma cruzi [1] = assay: (§1) DNDI: Chagas in Vitro; assay type: functional, organism-based, Tulahuen C4 (LacZ)
Trypanosoma cruzi [2] = assay: as §1; assay type: functional, Tulahuen C4 (LacZ)
[3] = DNDI: Cytotoxicity against L-6 rat myoblasts from skeletal musclE; settings: L6 rat skeletal muscle myoblasts, IC50
[4] = DNDI: Lipophilicity (gLogD) at pH 3; settings: buffer
[5] = DNDI: Lipophilicity (gLogD) at pH 7.4; settings: buffer
[6] = DNDI: Solubility in 0.01M HCl at pH 2 determined by nephelometry
[7] = DNDI: Solubility in phosphate buffer at pH 6.5 determined by nephelometry
in vitro [8] = settings: human, microsomes
in vitro [9] = settings: human, microsomes; remark: listed apart in the source
Cytochrome P450 3A4 = Cytochrome P450 3A4 (Homo sapiens, UniProt P08684)
in vitro [10] = settings: human, microsomes; remark: listed apart in the source
[11] = Trypanosoma cruzi, Tulahuen C4 (LacZ)

Cytochrome P450 3A4, sequence (P08684 whole entry): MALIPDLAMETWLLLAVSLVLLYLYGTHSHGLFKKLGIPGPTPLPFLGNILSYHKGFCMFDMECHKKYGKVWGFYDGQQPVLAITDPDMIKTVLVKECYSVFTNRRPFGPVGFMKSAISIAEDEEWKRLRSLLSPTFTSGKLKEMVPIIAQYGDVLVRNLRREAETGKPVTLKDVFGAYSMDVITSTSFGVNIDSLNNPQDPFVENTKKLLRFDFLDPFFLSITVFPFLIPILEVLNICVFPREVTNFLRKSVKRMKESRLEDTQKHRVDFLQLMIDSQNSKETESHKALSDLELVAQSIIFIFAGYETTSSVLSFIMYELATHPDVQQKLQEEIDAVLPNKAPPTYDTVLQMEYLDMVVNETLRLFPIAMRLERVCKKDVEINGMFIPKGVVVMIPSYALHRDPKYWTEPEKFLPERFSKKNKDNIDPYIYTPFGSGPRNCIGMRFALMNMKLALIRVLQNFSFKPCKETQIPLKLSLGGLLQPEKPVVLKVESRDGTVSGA

SMILES | IC50 (Trypanosoma cruzi [1]; [11]) [nM] | IC90 (Trypanosoma cruzi [2]; [11]) [nM] | IC50 [3] [nM] | solubility kinetic [6] [µg/mL] | solubility kinetic [7] [µg/mL] | further results
FC(F)(F)c1ccc(N(c2cccnc2)C2CCN(Cc3cccc(C(F)(F)F)c3)CC2)cc1 | 38 | 72 | 52100 | > 100 | 3.1 (≈ 6.47 µM) | chromatographic logD ([4]; pH 3, logD): 2.5; chromatographic logD ([5]; pH 7.4, logD): > 5.3; half-life (in vitro [8]; t (1 / 2)): 26 min; microsomal CLint (in vitro [9]; CLint): 66 µL/min/mg
FC(F)(F)c1ccc(N(c2cccnc2)C2CCN(c3ccc(Cl)cc3)CC2)cc1 | 15 | 27 | > 100000 | > 100 | < 1.6 | IC50 (Trypanosoma cruzi [1]): 22 nM; IC90 (Trypanosoma cruzi [2]): 25 nM; chromatographic logD ([4]; pH 3): > 5.3; chromatographic logD ([5]; pH 7.4): > 5.3; half-life (in vitro [8]): 51 min; microsomal CLint (in vitro [9]): 34 µL/min/mg
FC(F)(F)c1ccc(N(c2cccnc2)C2CCN(c3ccc(C(F)(F)F)cn3)CC2)cc1 |  |  |  |  |  | IC50 (Trypanosoma cruzi [1]): 19.7 nM; IC90 (Trypanosoma cruzi [2]): > 100 nM
Cc1ccc(N2CCC(N(c3ccc(C(F)(F)F)cc3)c3cccnc3)CC2)cn1 | 151 | 340 | > 100000 |  |  | 
CC(C)(C)N1CCC(N(c2ccc(C(F)(F)F)cc2)c2cccnc2)CC1 | 603 | 1070 |  |  |  | 
O=C(c1ccccc1)N1CCC(N(c2ccc(C(F)(F)F)cc2)c2cccnc2)CC1 | 7.46 | 16.6 |  |  |  | 
FC(F)(F)c1ccc(N2CCC(N(c3ccc(C(F)(F)F)cc3)c3cncnc3)CC2)cc1 | 7 | 11 | 76500 | < 1.6 | 3.1 (≈ 6.65 µM) | chromatographic logD ([4]; pH 3): > 5.3; chromatographic logD ([5]; pH 7.4): 5.2; half-life (in vitro [8]): 25.7 min; microsomal CLint (in vitro [9]): 67.5 µL/min/mg
Fc1ccccc1CN1CCC(N(c2ccc(C(F)(F)F)cc2)c2cccnc2)CC1 | 21 | 40 |  |  |  | 
Fc1cnc(N2CCC(N(c3ccc(C(F)(F)F)cc3)c3cccnc3)CC2)nc1 | 22 | 28 | 53100 | > 100 | < 1.6 | chromatographic logD ([4]; pH 3): 4.2; chromatographic logD ([5]; pH 7.4): 4.9; half-life (in vitro [8]): 49 min; microsomal CLint (in vitro [9]): 36 µL/min/mg
Cc1ccccc1CN1CCC(N(c2ccc(C(F)(F)F)cc2)c2cccnc2)CC1 | 7 | 19 |  | > 100 |  | chromatographic logD ([4]; pH 3, logD): 2; chromatographic logD ([5]; pH 7.4, logD): > 5.3; half-life (in vitro [8]; t (1 / 2)): 14.1 min; microsomal CLint (in vitro [9]; CLint): 123 µL/min/mg
CC(C)(O)CN1CCC(N(c2ccc(C#N)cc2)c2cccnc2)CC1 | 27 | 71 | > 100000 | > 100 | > 100 | chromatographic logD ([4]; pH 3, logD): 0.7; chromatographic logD ([5]; pH 7.4, logD): 2.2; half-life (in vitro [8]; t (1 / 2)): 142 min; microsomal CLint (in vitro [9]; CLint): 12.2 µL/min/mg
CC(C)(C)OC(=O)N1CCC(N(c2ccc(C(F)(F)F)cc2)c2cccnc2)CC1 | 5.12 | 9.9 | 22200 |  |  | 
FC(F)(F)c1ccc(N(c2cccnc2)C2CCN(c3cccc(C(F)(F)F)c3)CC2)cc1 | 210 | 312 | > 100000 |  |  | 
FC(F)(F)c1ccc(N(c2cccnc2)C2CCN(c3nccs3)CC2)cc1 |  | 31 | 41500 | > 100 | 1.6 (≈ 3.96 µM) | chromatographic logD ([4]; pH 3): 3.1; chromatographic logD ([5]; pH 7.4): 4.3; half-life (in vitro [8]): 10.8 min; microsomal CLint (in vitro [9]): 161 µL/min/mg
Cc1cccc(CN2CCC(N(c3ccc(C(F)(F)F)cc3)c3cccnc3)CC2)c1 | 44 | 79 | 42900 |  |  | 
FC(F)(F)c1ccc(N(c2cccnc2)C2CCN(c3ccc(Cl)cn3)CC2)cc1 | 39 | 83 |  |  |  | 
CN(C)S(=O)(=O)c1cccc(N2CCC(N(c3ccc(C#N)cc3)c3cccnc3)CC2)c1 | 6 | 11 |  | 50 (≈ 108 µM) | < 1.6 | chromatographic logD ([4]; pH 3): 3.6; chromatographic logD ([5]; pH 7.4): 3.7; IC50 (Cytochrome P450 3A4): 6000 nM; half-life (in vitro [8]): 3.4 min; hepatic extraction ratio (in vitro [10]): 0.97; microsomal CLint (in vitro [9]): 504 µL/min/mg
FC(F)(F)c1ccc(N(c2cccnc2)C2CCN(c3ccccc3)CC2)cc1 | 14 | 30 | 57400 | > 100 | < 1.6 | chromatographic logD ([4]; pH 3): 4.7; chromatographic logD ([5]; pH 7.4): > 5.3; half-life (in vitro [8]): 29.7 min; microsomal CLint (in vitro [9]): 58.4 µL/min/mg

SMILES | IC50 (Trypanosoma cruzi [1]; [11]) [nM] | IC90 (Trypanosoma cruzi [2]; [11]) [nM] | IC50 [3] [nM] | solubility kinetic [6] [µg/mL] | solubility kinetic [7] [µg/mL] | further results
FC(F)(F)c1ccc(N(c2cccnc2)C2CCN(c3ccccn3)CC2)cc1 | 24 | 51 |  |  |  | 
CC(C)(O)CN1CCC(N(c2ccc(C(F)(F)F)cc2)c2cccnc2)CC1 | 11 | 30 |  |  |  | 
N#Cc1ccc(N(c2cccnc2)C2CCN(c3ccc(C(F)(F)F)cc3C#N)CC2)cc1 | 2 | 4 | > 100000 |  |  | 
FC(F)(F)c1ccc(CN2CCC(N(c3ccc(C(F)(F)F)cc3)c3cccnc3)CC2)cc1 | 33 | 80 |  |  |  | 
FC(F)(F)c1ccc(N(c2cccnc2)C2CCN(Cc3ccccc3C(F)(F)F)CC2)cc1 | 9 | 36 |  | > 100 | 1.6 (≈ 3.34 µM) | chromatographic logD ([4]; pH 3, logD): 2.7; chromatographic logD ([5]; pH 7.4, logD): > 5.3; half-life (in vitro [8]; t (1 / 2)): 18.7 min; microsomal CLint (in vitro [9]; CLint): 92.8 µL/min/mg
CN(C)S(=O)(=O)c1cc(C(F)(F)F)ccc1N1CCC(N(c2ccc(C#N)cc2)c2cccnc2)CC1 | 6 | 11 | > 100000 |  |  | 
COc1ccc(CN2CCC(N(c3ccc(C(F)(F)F)cc3)c3cccnc3)CC2)cc1 | 57 | 92 | 16300 | > 100 | 6.3 (≈ 14.3 µM) | chromatographic logD ([4]; pH 3, logD): 2; chromatographic logD ([5]; pH 7.4, logD): 4.9; half-life (in vitro [8]; t (1 / 2)): 31 min; microsomal CLint (in vitro [9]; CLint): 56 µL/min/mg
CS(=O)(=O)c1ccc(N2CCC(N(c3ccc(C#N)cc3)c3cccnc3)CC2)cc1 | 2.35 | 6.6 | > 100000 |  | 1.6 (≈ 3.7 µM) | chromatographic logD ([4]; pH 3): 2.7; chromatographic logD ([5]; pH 7.4): 3; half-life (in vitro [8]): 111 min; hepatic extraction ratio (in vitro [10]): 0.47; microsomal CLint (in vitro [9]): 15.6 µL/min/mg
FC(F)(F)c1ccc(N(c2cccnc2)C2CCN(c3ccccc3C(F)(F)F)CC2)cc1 | 15 | 36 |  |  |  | 
FC(F)(F)c1ccc(N(c2cccnc2)C2CCN(c3ncccn3)CC2)cc1 | 17 | 23 | 53900 | > 100 | 1.6 (≈ 4.01 µM) | chromatographic logD ([4]; pH 3): 3.5; chromatographic logD ([5]; pH 7.4): 4.4; half-life (in vitro [8]): 8.8 min; microsomal CLint (in vitro [9]): 196 µL/min/mg
O=C(c1c(F)cccc1F)N1CCC(N(c2ccc(C(F)(F)F)cc2)c2cccnc2)CC1 | 2 | 9 | 48900 |  |  | 
CN(C)S(=O)(=O)c1ccccc1N1CCC(N(c2ccc(C#N)cc2)c2cccnc2)CC1 | 10 | 28 |  |  |  | 
Cc1cncc(N2CCC(N(c3ccc(C(F)(F)F)cc3)c3cccnc3)CC2)c1 | 9 | 27 |  |  |  | 
Cc1ccc(CN2CCC(N(c3ccc(C(F)(F)F)cc3)c3cccnc3)CC2)cc1 | 67 | > 100 | 45600 |  |  | 
FC(F)(F)c1ccc(N(c2cccnc2)C2CCN(c3ccc(C(F)(F)F)nc3)CC2)cc1 |  | 32 |  |  |  | 
COc1cccc(CN2CCC(N(c3ccc(C(F)(F)F)cc3)c3cccnc3)CC2)c1 | 56 | 90 | 36800 |  |  | 
CC(C)(C)OC(=O)N1CCC(N(c2ccc(Cl)cc2)c2cccnc2)CC1 | 1.03 | 3.26 | 52800 |  |  | 
